Tests used:
GluK2 receptors = conditions: literature range; ref Jones et al., 1997; Alt et al., 2004; Jane et al., 2009; cited from earlier work
GluK2/K5 receptors = conditions: literature range; ref Jones et al., 1997; Alt et al., 2004; Jane et al., 2009; cited from earlier work
[1] = system: Homomeric GluK1 or GluK2 receptors; experiment: Whole-cell patch-clamp current response, homomeric GluK1 or GluK2 receptors; type: cell-based, rat; conditions: read-out: EC50 range; summary in discussion of own homomer values
GluK3/K5 heteromer = conditions: read-out: glutamate EC50; ref Perrais et al, 2009a; cited from earlier work
GluK3 homomers = conditions: read-out: glutamate EC50; ref Perrais et al, 2009a; cited from earlier work

SMILES: C=C(C)[C@H]1CN[C@H](C(=O)O)[C@H]1CC(=O)O [kainate]
- EC50 (GluK2 receptors): 1 to 5 µM
- EC50 (GluK2/K5 receptors): 1 to 5 µM

SMILES: N[C@@H](CCC(=O)O)C(=O)O [glutamate]
- EC50 [1]: 100 to 200 µM
- EC50 (GluK3/K5 heteromer): 6000 µM
- EC50 (GluK3 homomers): 10000 µM

Reference: publication PMC4172534 (Neuroscience, 2014)
